Assay results from US7618990B2, “Oxazolidone derivatives as PR modulators” (Wyeth, priority 2006, dated 2009).

What follows are compounds tested on alkaline phosphatase activity in T47D cells (assay: Effects of progestins and antiprogestins on alkaline phosphatase activity in T47D cells (antagonist mode)). Conditions: Homo sapiens, % inhibition at 30 nM, in the presence of 1 nM progesterone, read-out: T47D Alkaline Phosphatase Activity IC50 (nM) or % inhibition.
Type: cell-based
Method: (1) Effects of Progestins and Antiprogestins on Alkaline Phosphatase Activity in T47D Cells
PURPOSE: To identify progestins or antiprogestins by determining a compound's effect on alkaline phosphatase activity in T47D cells.
Culture Medium: • DMEM:F12 (1:1) (GIBCO, BRL) supplemented with 5% (v/v) charcoal stripped fetal bovine serum (not heat-inactivated), 100 U/mL penicillin, 100 μg/mL streptomycin, and 2 mM the GlutaMax™ reagent (GIBCO, BRL).
Alkaline Phosphatase Assay Buffer: • I. 0.1M Tris-HCl, pH 9.8, containing 0.2% the Triton® X-100 reagent • II. 0.1M Tris-HCl, pH 9.8, containing 4 mM p-nitrophenyl phosphate (Sigma). B. Cell Culture and Treatment:
Frozen T47D cells were thawed in a 37° C. water bath and diluted to 280,000 cells/mL in culture medium. To each well in a 96-well plate (Falcon, Becton Dickinson Labware), 180 μL of diluted cell suspension was added.
Twenty μL of reference or test compounds diluted in the culture medium was then added to each well. When testing for progestin antagonist activity, reference antiprogestins or test compounds were added in the presence of 1 nM progesterone. The cells were incubated at 37° C. in a 5% CO2/humidified atmosphere for 24 h.
NOTE: For high throughput screening, one concentration of each compound was tested at 0.3 μg/mL. Based on an average molecular weight of 300 g/mol for the compounds in the library, the concentration was approximately 1 μM. Subsequently, active compounds were tested in dose response assays to determine EC50 and IC50. C. Alkaline Phosphatase Enzyme Assay:
At the end of treatment, the medium was removed from the plate. Fifty μL of assay buffer I was added to each well. The plates were shaken in a titer plate shaker for 15 min. Then 150 μL of assay buffer II was added to each well. Optical density measurements were taken at 5 min intervals for 30 min at a test wavelength of 405 nm.
For reference and test compounds, a dose response curve was generated for dose (X-axis) vs. the rate of enzyme reaction (slope) (Y-axis). Square root-transformed data was used for analysis of variance and nonlinear dose response curve fitting for both agonist and antagonist modes. Huber weighting was used to down-weight the effects of outliers. EC50 or IC50 values were calculated from the retransformed values. JMP software (SAS Institute, Inc.) was used for both one-way analysis of variance and non-linear dose response analysis in both single dose and dose response studies.
Progesterone and trimegestone were reference progestins and RU486 was the reference antiprogestin. All reference compounds were run in full dose response curves and the EC50 and IC50 values were calculated.
With `CC1(C)COC(=O)N1c1nc(-c2ccc(Cl)cc2Cl)cs1` [Example 118, 3-[4-(2,4-Dichlorophenyl)-1,3-thiazol-2-yl]-4,4-dimethyl-1,3-oxazolidin-2-one] the inhibition at 0.03 µM was 60%.

Same assay, conditions: Homo sapiens, % inhibition at 3000 nM, in the presence of 1 nM progesterone, read-out: T47D Alkaline Phosphatase Activity IC50 (nM) or % inhibition
With `CC1(C)COC(=O)N1c1nc(-c2ccc(OCc3ccccc3)cc2)cs1` [Example 125, 3-{4-[4-(Benzyloxy)phenyl]-1,3-thiazol-2-yl}-4,4-dimethyl-1,3-oxazolidin-2-one] the inhibition at 3 µM was 80%.

Same assay, conditions: Homo sapiens, in the presence of 1 nM progesterone, 24 h, read-out: T47D Alkaline Phosphatase Activity IC50 (nM) or % inhibition
`CC1(C)COC(=O)N1c1nc(-c2ccc(C(F)(F)F)cc2)cs1` [Example 95, 4,4-Dimethyl-3-{4-[4-(trifluoromethyl)phenyl]-1,3-thiazol-2-yl}-1,3-oxazolidin-2-one] was tested, and the IC50 was 108 nM.
Work on `COC(=O)c1ccc(-c2nc(N3C(=O)OCC3(C)C)sc2Cl)cc1` [Example 130, Methyl 4-[5-chloro-2-(4,4-dimethyl-2-oxo-1,3-oxazolidin-3-yl)-1,3-thiazol-4-yl]benzoate] yielded an IC50 of 181 nM.
Work on `COc1ccc(-c2csc(N3C(=O)OCC3(C)C)n2)cc1OC` [Example 108, 3-[4-(3,4-Dimethoxyphenyl)-1,3-thiazol-2-yl]-4,4-dimethyl-1,3-oxazolidin-2-one] yielded an IC50 of 823 nM.
For `CC1(C)CO/C(=N\C#N)N1c1nc(-c2ccc(C#N)cc2)cs1` [Example 135, {(2Z)-3-[4-(4-cyanophenyl)-1,3-thiazol-2-yl]-4,4-dimethyl-1,3-oxazolidin-2-ylidene}cyanamide], the IC50 was 64.4 nM.
Work on `COc1cccc(-c2csc(N3C(=O)OCC3(C)C)n2)c1` [Example 99, 3-[4-(3-Methoxyphenyl)-1,3-thiazol-2-yl]-4,4-dimethyl-1,3-oxazolidin-2-one] yielded an IC50 of 64.6 nM.
`CC1(C)COC(=O)N1c1nc(-c2ccc(F)c(Cl)c2)cs1` [Example 117, 3-[4-(3-Chloro-4-fluorophenyl)-1,3-thiazol-2-yl]-4,4-dimethyl-1,3-oxazolidin-2-one] showed an IC50 of 50.4 nM.
`N#Cc1ccc(-c2csc(N3C(=O)OCC34CCC4)n2)cc1` [Example 27, 4-[2-(6-Oxo-7-oxa-5-azaspiro[3.4]oct-5-yl)-1,3-thiazol-4-yl]benzonitrile] showed an IC50 of 17.1 nM.
Compound `CN1CCN(c2nc(-c3ccc(Br)cc3)cs2)C1=O` [Example 76, 1-[4-(4-Bromophenyl)-1,3-thiazol-2-yl]-3-methylimidazolidin-2-one] has an IC50 of 733 nM.
`N#Cc1ccc(-c2csc(N3CCOC3=O)n2)cc1` [Example 132, 4-[2-(2-Oxo-1,3-oxazolidin-3-yl)-1,3-thiazol-4-yl]benzonitrile] gave an IC50 of 37.6 nM.
Work on `CC(=O)c1ccc(-c2csc(N3C(=O)OCC3(C)C)n2)cc1` [Example 106, 3-[4-(4-Acetylphenyl)-1,3-thiazol-2-yl]-4,4-dimethyl-1,3-oxazolidin-2-one] yielded an IC50 of 498 nM.
Work on `CC1(C)COC(=S)N1c1nc(-c2ccc(C#N)cc2)cs1` [Example 82, 4-[2-(4,4-Dimethyl-2-thioxo-1,3-oxazolidin-3-yl)-1,3-thiazol-4-yl]benzonitrile] yielded an IC50 of 6.4 nM.
Work on `CC1(C)COC(=O)N1c1nc(-c2ccc(Cl)c(F)c2)cs1` [Example 109, 3-[4-(4-Chloro-3-fluorophenyl)-1,3-thiazol-2-yl]-4,4-dimethyl-1,3-oxazolidin-2-one] yielded an IC50 of 28.8 nM.
Compound `CC(=O)c1cccc(-c2csc(N3C(=O)OCC3(C)C)n2)c1` [Example 107, 3-[4-(3-Acetylphenyl)-1,3-thiazol-2-yl]-4,4-dimethyl-1,3-oxazolidin-2-one] has an IC50 of 83.7 nM.
For `CC1(C)COC(=O)N1c1nc(-c2ccc(C#N)cc2)c(Cl)s1` [Example 90, 4-[5-Chloro-2-(4,4-dimethyl-2-oxo-1,3-oxazolidin-3-yl)-1,3-thiazol-4-yl]benzonitrile], the IC50 was 43.5 nM.
With `CC1(C)OCCN1c1nc(-c2ccc(C#N)cc2)cs1` [Example 110, 4-[2-(2,2-Dimethyl-1,3-oxazolidin-3-yl)-1,3-thiazol-4-yl]benzonitrile] the IC50 was 269 nM.
In the case of `CC1(C)COC(=O)N1c1nc(-c2ccccc2[N+](=O)[O-])cs1` [Example 123, 4,4-Dimethyl-3-[4-(2-nitrophenyl)-1,3-thiazol-2-yl]-1,3-oxazolidin-2-one], the IC50 is reported as 1420 nM.
